Reference: patent EP0326331B1, “Substituted quinolines and cinnolines” (Dow AgroSciences LLC, priority 1988, dated 1989)
Like-named read-outs stand apart in the source and are kept apart here.

What was measured:
Assay type in all cases: in vivo
[1] = system: Erysiphe graminis tritici (powdery mildew); experiment: Test 1 greenhouse foliar spray screen, powdery mildew on wheat; conditions: for POWD MDEW: disease control rating, foliar spray on wheat, 400 ppm (+++ at 100 ppm); for pest or weed control at 400 ppm: Blumeria graminis, foliar, Test 1, foliar spray on wheat, disease control rating at 400 ppm / 100 ppm, read-out: POWD MDEW
plant pathogens = experiment: Fungicidal efficacy against a broad spectrum of plant pathogens (summary of screen); conditions: summary statement in the description
[2] = system: Pseudoperonospora cubensis (downy mildew); experiment: Test 1 greenhouse foliar spray screen, downy mildew on squash; conditions: for DOWN MDEW: disease control rating, foliar spray on squash, 400 ppm (+++ at 100 ppm); for pest or weed control at 400 ppm: Pseudoperonospora cubensis, foliar, Test 1, foliar spray on squash, disease control rating at 400 ppm / 100 ppm, read-out: DOWN MDEW
corn rootworm = experiment: Mite/insect screen, CRW; conditions: percent mortality; for mortality at 12 ppm / mortality at 24 ppm: read-out: CRW RESULTS %
Summary of the method: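 Corn rootworm mortality (%) was evaluated following standard exposure times. Test material was emulsified by dissolution in acetone/alcohol (1:1) containing sulfonate/nonionic emulsifier blends TOXIMUL R (23 g/L) and TOXIMUL S (13 g/L), and water-diluted to the indicated doses.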

[3] = system: Puccinia recondita tritici (leaf rust); experiment: Test 1 greenhouse foliar spray screen, leaf rust on wheat; conditions: for LEAF RUST: disease control rating, foliar spray on wheat, 400 ppm (+++ at 100 ppm); for pest or weed control at 400 ppm: Puccinia recondita, foliar, Test 1, foliar spray on wheat, disease control rating at 400 ppm / 100 ppm
[4] = system: Botrytis cinerea (gray mold); experiment: Test 1 greenhouse foliar spray screen, gray mold on grape berries; conditions: for GRAY MOLD: disease control rating, spray on grape berries, 400 ppm (+++ at 100 ppm); for pest or weed control at 400 ppm: Botrytis cinerea, foliar, Test 1, spray on grape berries, disease control rating at 400 ppm / 100 ppm
[5] = system: southern armyworm (Spodopetra eridania Cramer); experiment: Mite/insect screen, SAW; conditions: percent mortality; for mortality at 200 ppm / mortality at 400 ppm: Spodoptera eridania, read-out: SAW RESULTS %
Summary of the method: (§1)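 Percent mortality was scored after standard exposure periods, following spraying of leaves to runoff (both surfaces, 10 psi, 1 h drying) with water dilutions of compound in emulsifier-containing acetone/alcohol (50:50). Armyworms received excised treated leaves in dishes.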

[6] = system: Twospotted spider mites (Tetranychus urticae Koch); experiment: Mite/insect screen, SM; conditions: for mortality at 200 ppm / mortality at 400 ppm: Tetranychus urticae, read-out: SM RESULTS %; for mortality at 200 ppm / mortality at 400 ppm / SM RESULTS %: percent mortality; for activity as miticides: summary statement in the description
Summary of the method: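 Read-out: percent mortality after standard exposure periods. Test solutions were water dilutions of compound dissolved in acetone/alcohol (50:50) with emulsifier blends; leaves were sprayed to runoff on both surfaces and air-dried for one hour before exposure.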

[7] = system: Pyricularia oryzae (rice blast); experiment: whole plant or invertebrate; conditions: for RICE BLAST: disease control rating, foliar spray on rice, 400 ppm (+++ at 100 ppm); for pest or weed control at 400 ppm: Pyricularia oryzae, foliar, read-out: RICE BLAST, Test 1, foliar spray on rice, disease control rating at 400 ppm / 100 ppm
[8] = system: melon aphids (Aphis gossypii Glover); experiment: Mite/insect screen, MA; conditions: percent mortality; for mortality at 200 ppm / mortality at 400 ppm: Aphis gossypii, read-out: MA RESULTS %
Summary of the method: as §1

[9] = system: Venturia inaequalis (apple scab); experiment: Test 1 greenhouse foliar spray screen, apple scab on apple seedling; conditions: for pest or weed control at 400 ppm: Venturia inaequalis, Test 1, foliar spray on apple seedling, disease control rating at 400 ppm / 100 ppm, read-out: APPL SCAB
[10] = system: Cercospora beticola (leaf spot); experiment: Test 1 greenhouse foliar spray screen, leaf spot on sugar beet; conditions: for pest or weed control at 400 ppm: Cercospora beticola, Test 1, foliar spray on sugar beet, disease control rating at 400 ppm / 100 ppm
[11] = system: Septoria tritici (leaf blotch); experiment: Test 1 greenhouse foliar spray screen, leaf blotch on wheat; conditions: for pest or weed control at 400 ppm: Zymoseptoria tritici, Test 1, foliar spray on wheat, disease control rating at 400 ppm / 100 ppm, read-out: LEAF BLOT
[12] = foliar, rate 400 ppm, foliar spray on squash
[13] = foliar, rate 200 ppm, foliar spray on squash

Fc1cccc2c(NCCc3cccc(Oc4ccccc4)c3)ccnc12 [Example 39, 8-fluoro-N-[2-(3-phenoxyphenyl)ethyl]-4-quinolinamine]
POWD MDEW [1]: +++ (90-100% control at 100 ppm)
activity against a broad spectrum of plant pathogens (plant pathogens): particularly excellent activity
DOWN MDEW [2]: +++ (90-100% control at 100 ppm)
mortality at 12 ppm (corn rootworm; CRW RATE 12.00 PPM): 0%
mortality at 24 ppm (corn rootworm; CRW RATE 24.00 PPM): 0%
LEAF RUST [3]: +++ (90-100% control at 100 ppm)
GRAY MOLD [4]: - (0-19% control at 400 ppm)
mortality at 200 ppm ([5]; SAW, SM & MA RATE 200 PPM): 0%
mortality at 400 ppm ([5]; SAW, SM & MA RATE 400 PPM): 0%
mortality at 200 ppm ([6]; SAW, SM & MA RATE 200 PPM): 0%
mortality at 400 ppm ([6]; SAW, SM & MA RATE 400 PPM): 0%
RICE BLAST [7]: +++ (90-100% control at 100 ppm)
mortality at 200 ppm ([8]; SAW, SM & MA RATE 200 PPM): 0%
mortality at 400 ppm ([8]; SAW, SM & MA RATE 400 PPM): 0%

Fc1cccc2c(NCCc3cccc(-c4ccccc4)c3)ccnc12 [Example 72, N-[2-(1,1'-biphenyl)-3-ylethyl]-8-fluoro-4-quinolinamine]
POWD MDEW [1]: ++ (90-100% control at 400 ppm)
activity against a broad spectrum of plant pathogens (plant pathogens): particularly excellent activity
DOWN MDEW [2]: +++ (90-100% control at 100 ppm)
mortality at 24 ppm (corn rootworm; CRW RATE 24.00 PPM): 0%
LEAF RUST [3]: +++ (90-100% control at 100 ppm)
GRAY MOLD [4]: - (0-19% control at 400 ppm)
mortality at 400 ppm ([5]; SAW, SM & MA RATE 400 PPM): 0%
mortality at 400 ppm ([6]; SAW, SM & MA RATE 400 PPM): 0%
RICE BLAST [7]: +++ (90-100% control at 100 ppm)
mortality at 400 ppm ([8]; SAW, SM & MA RATE 400 PPM): 0%

Fc1cccc2c(OCCc3ccccc3C(F)(F)F)ccnc12 [Example 206, 8-fluoro-4-[2-(2-(trifluoromethyl)phenyl)ethoxy]quinoline]
pest or weed control at 400 ppm [1]: 90 to 100%
activity against a broad spectrum of plant pathogens (plant pathogens): particularly excellent activity
pest or weed control at 400 ppm [2]: 90 to 100%
mortality at 24 ppm (corn rootworm; CRW rate 24.00 ppm): 0%
pest or weed control at 400 ppm [3]: 90 to 100%
pest or weed control at 400 ppm [4]: 0 to 19%
mortality at 400 ppm [5, 12]: 0%
mortality at 400 ppm [6, 12]: 0%
pest or weed control at 400 ppm [7]: 90 to 100%
mortality at 400 ppm [8, 12]: 0%

Cc1cccc(CCOc2ccnc3c(F)cccc23)c1 [Example 224, 8-fluoro-4-[2-(3-methylphenyl)ethoxy]quinoline]
pest or weed control at 400 ppm [1]: 90 to 100%
activity against a broad spectrum of plant pathogens (plant pathogens): particularly excellent activity
pest or weed control at 400 ppm [2]: 90 to 100%
mortality at 24 ppm (corn rootworm; CRW rate 24.00 ppm): 0%
pest or weed control at 400 ppm [3]: 90 to 100%
pest or weed control at 400 ppm [4]: 0 to 19%
mortality at 400 ppm [5, 12]: 0%
mortality at 400 ppm [6, 12]: 0%
pest or weed control at 400 ppm [7]: 90 to 100%
mortality at 400 ppm [8, 12]: 0%

Fc1ccccc1CCOc1ccnc2c(F)cccc12 [Example 225, 8-fluoro-4-[2-(2-fluorophenyl)ethoxy]quinoline]
pest or weed control at 400 ppm [1]: 90 to 100%
activity against a broad spectrum of plant pathogens (plant pathogens): particularly excellent activity
pest or weed control at 400 ppm [2]: 90 to 100%
mortality at 24 ppm (corn rootworm; CRW rate 24.00 ppm): 0%
pest or weed control at 400 ppm [3]: 90 to 100%
pest or weed control at 400 ppm [4]: 0 to 19%
mortality at 400 ppm [5, 12]: 0%
mortality at 400 ppm [6, 12]: 0%
pest or weed control at 400 ppm [7]: 90 to 100%
mortality at 400 ppm [8, 12]: 0%

Fc1cccc2c(CCCc3ccccc3)ccnc12 [Example 253, 8-fluoro-4-(3-phenylpropyl)quinoline]
pest or weed control at 400 ppm [9]: 90 to 100%
pest or weed control at 400 ppm [1]: 90 to 100%
pest or weed control at 400 ppm [2]: 90 to 100%
pest or weed control at 400 ppm [10]: 20 to 89%
mortality at 12 ppm (corn rootworm; CRW rate 12.00 ppm): 0%
mortality at 24 ppm (corn rootworm; CRW rate 24.00 ppm): 0%
pest or weed control at 400 ppm [3]: 90 to 100%
pest or weed control at 400 ppm [4]: 0 to 19%
mortality at 200 ppm [5, 13]: 0%
mortality at 400 ppm [5, 12]: 0%
mortality at 200 ppm [6, 13]: 100%
mortality at 400 ppm [6, 12]: 100%
activity as miticides [6]: particularly excellent activity
pest or weed control at 400 ppm [11]: 20 to 89%
pest or weed control at 400 ppm [7]: 90 to 100%
mortality at 200 ppm [8, 13]: 90%
mortality at 400 ppm [8, 12]: 100%

Cc1ccc(CCCc2ccnc3c(F)cccc23)cc1 [Example 258, 8-fluoro-4-[3-(4-methylphenyl)propyl]quinoline]
pest or weed control at 400 ppm [9]: 0 to 19%
pest or weed control at 400 ppm [1]: 90 to 100%
pest or weed control at 400 ppm [2]: 90 to 100%
pest or weed control at 400 ppm [10]: 20 to 89%
mortality at 24 ppm (corn rootworm; CRW rate 24.00 ppm): 0%
pest or weed control at 400 ppm [3]: 90 to 100%
pest or weed control at 400 ppm [4]: 0 to 19%
mortality at 400 ppm [5, 12]: 0%
mortality at 400 ppm [6, 12]: 90%
activity as miticides [6]: particularly excellent activity
pest or weed control at 400 ppm [11]: 20 to 89%
pest or weed control at 400 ppm [7]: 90 to 100%
mortality at 400 ppm [8, 12]: 100%

Fc1cccc2c(CCCc3cccc(C(F)(F)F)c3)ccnc12 [Example 259, 8-fluoro-4-[3-[3-(trifluoromethyl)phenyl]propyl]quinoline]
pest or weed control at 400 ppm [9]: 90 to 100%
pest or weed control at 400 ppm [1]: 20 to 89%
pest or weed control at 400 ppm [2]: 90 to 100%
pest or weed control at 400 ppm [10]: 0 to 19%
mortality at 12 ppm (corn rootworm; CRW rate 12.00 ppm): 0%
mortality at 24 ppm (corn rootworm; CRW rate 24.00 ppm): 0%
pest or weed control at 400 ppm [3]: 90 to 100%
pest or weed control at 400 ppm [4]: 20 to 89%
mortality at 200 ppm [5, 13]: 0%
mortality at 400 ppm [5, 12]: 0%
mortality at 200 ppm [6, 13]: 100%
mortality at 400 ppm [6, 12]: 80%
activity as miticides [6]: particularly excellent activity
pest or weed control at 400 ppm [11]: 90 to 100%
pest or weed control at 400 ppm [7]: 90 to 100%
mortality at 200 ppm [8, 13]: 90%
mortality at 400 ppm [8, 12]: 80%

Fc1cccc2c(CCCc3ccc(Cl)cc3)ccnc12 [Example 261, 4-[3-(4-chlorophenyl)propyl]-8-fluoroquinoline]
pest or weed control at 400 ppm [9]: 20 to 89%
pest or weed control at 400 ppm [1]: 20 to 89%
pest or weed control at 400 ppm [2]: 20 to 89%
pest or weed control at 400 ppm [10]: 0 to 19%
mortality at 12 ppm (corn rootworm; CRW rate 12.00 ppm): 0%
mortality at 24 ppm (corn rootworm; CRW rate 24.00 ppm): 100%
pest or weed control at 400 ppm [3]: 90 to 100%
pest or weed control at 400 ppm [4]: 0 to 19%
mortality at 200 ppm [5, 13]: 100%
mortality at 400 ppm [5, 12]: 80%
mortality at 200 ppm [6, 13]: 90%
mortality at 400 ppm [6, 12]: 50%
pest or weed control at 400 ppm [11]: 20 to 89%
pest or weed control at 400 ppm [7]: 20 to 89%
mortality at 200 ppm [8, 13]: 100%
mortality at 400 ppm [8, 12]: 100%

N-[2-(2,3,4,5,6-tetramethylphenyl)ethyl]-8-fluoro-4-quinolinamine [Example 112]
APPL SCAB ([9]; disease control rating, foliar spray on apple seedling, 400 ppm (+++ at 100 ppm)): - (0-19% control at 400 ppm)
POWD MDEW [1]: - (0-19% control at 400 ppm)
DOWN MDEW [2]: +++ (90-100% control at 100 ppm)
LEAF SPOT ([10]; disease control rating, foliar spray on sugar beet, 400 ppm (+++ at 100 ppm)): - (0-19% control at 400 ppm)
CRW RESULTS % (corn rootworm; CRW RATE 12.00 PPM): 0%
CRW RESULTS % (corn rootworm; CRW RATE 24.00 PPM): 0%
LEAF RUST [3]: + (20-89% control at 400 ppm)
GRAY MOLD [4]: - (0-19% control at 400 ppm)
SAW RESULTS % ([5]; SAW, SM & MA RATE 200 PPM): 0%
SAW RESULTS % ([5]; SAW, SM & MA RATE 400 PPM): 0%
SM RESULTS % ([6]; SAW, SM & MA RATE 200 PPM): 0%
SM RESULTS % ([6]; SAW, SM & MA RATE 400 PPM): 0%
LEAF BLOT ([11]; disease control rating, foliar spray on wheat, 400 ppm (+++ at 100 ppm)): - (0-19% control at 400 ppm)
RICE BLAST [7]: - (0-19% control at 400 ppm)
MA RESULTS % ([8]; SAW, SM & MA RATE 200 PPM): 0%
MA RESULTS % ([8]; SAW, SM & MA RATE 400 PPM): 0%
